One assay concerns iNOS. Kind of assay: Western blot of iNOS protein level in IL-1β-treated chondrocytes. The format is cell-based, rabbit. The settings on record: C8 0.31-1.24 µM in DMEM, IL-1β 20 h. The method, then: As expected, COX-1 protein was detectable but COX-2 and iNOS proteins were undetectable in untreated control conditions (Fig. 6A). […] Consequently, the protein ratio of COX-1 to COX-2 was not modified by C8 (Fig. 6B). […] Cell lysates were centrifuged for 15 min at 14000 rpm at 4°C and supernatants were collected. Protein concentrations were determined by the Bradford method by use of the Protein Assay dye reagent (Bio-Rad). Protein extracts (20 µg) were size-separated by SDS-PAGE in a 10% (w/v) polyacrylamide gel and electroblotted to a nitrocellulose membrane. Equal protein loading and transfer was confirmed by staining the membrane with Ponceau Red [0.2% (w/v) in H2O:acetic acid 99∶1]. The membrane was sequentially incubated with antibodies against COX-1 (1∶200, Santa Cruz Biotechnology), COX-2 (1∶500, Santa Cruz Biotechnology), iNOS (1∶400, BD Biosciences) or α-tubulin (1∶100, Santa Cruz Biotechnology) and then with peroxidase-conjugated donkey anti-goat IgG (1∶20000) or donkey anti-rabbit IgG (1∶200, both Santa Cruz Biotechnology). Immunocomplexes were detected by an enhanced chemiluminescence kit (Amersham Bioscience). The membrane was stripped by incubation in 0.2 M NaOH between successive immunodetections. Semi-quantitative scanning densitometry involved use of the ImageJ program (NIH, USA).

For assay [1], the system named is IL-1β-stimulated NO secretion in articular chondrocytes. Kind of assay: IL-1β-stimulated NO (nitrite) secretion in articular chondrocytes (Griess). It is filed as cell-based, rabbit. The method, then:
We tested the effect of C8 on the IL-1β-stimulated secretion of NO in chondrocytes. NO is a mediator of immune and inflammatory responses. In vitro, IL-1β induces the expression of inducible NO synthase (iNOS) by chondrocytes, and consequently an increase in NO production. NO secretion, evaluated by nitrite concentration in the cell culture medium, represents a reliable IL-1β-dependent and PLA2-independent inflammatory marker in our cell model. Chondrocytes were treated for 20 h with IL-1β alone or 1 h after the addition of C8.
Articular chondrocytes were isolated from 5-week-old Fauve de Bourgogne female rabbits (CPA, Orleans, France) and cultured at the first passage in conditions avoiding cell dedifferentiation as previously described. Cells were cultured at 37°C in 12-well plates in Ham's F-12 medium containing 10% FCS, 20 IU/mL penicillin, and 20 µg/mL streptomycin (all from Invitrogen) until nearly confluent. Then medium was replaced with DMEM (Invitrogen) containing 20 IU/mL penicillin, and 20 µg/mL streptomycin and, if necessary, 0.1% fatty acid free BSA (Sigma) or 2% FCS. At this time the C8 compound dissolved in DMSO (Sigma) was added to the medium (the amount of DMSO was kept at 1‰ (v/v) in all the wells). 1 h after the addition of C8, IL-1β (PeproTech) was added to the medium. Consequently, chondrocytes were incubated for 20 h with IL-1β and for 21 h with C8.
20 h after the addition of IL-1β to the chondrocytes, culture media were collected, and aliquots were stored at −80°C until PGE2 and nitrite quantification. PGE2 concentration in culture media was determined by use of an enzyme immunoassay (EIA) kit (PGE2 EIA Kit-monoclonal; Cayman Chemical). Nitrite concentration was determined by a spectrophotometry method based on the Griess reaction. Briefly, 200 µL of culture medium or sodium nitrite (NaNO2, Merck) standard dilutions were mixed with 100 µL Griess reagent [0.5% (w/v) sulphanilic acid (Merck), 0.05% (w/v) N(1-naphtyl)ethylenediamine (Merck), 30% (v/v) acetic acid, 1.5 N HCl] and incubated for 10 min at 50°C. The absorbance was measured at 540 nm.

Turning to `O=c1[nH]c(Cc2ccc(OCCCCCOc3cc4ccccc4c4ccccc34)cc2)no1` [C8], in the assay on iNOS, the “effect on iNOS protein level” value was “did not alter”. The “inhibition of IL-1β-stimulated nitrite secretion” value in assay [1] (DMEM + 0.1% BSA, IL-1β 20 h) is listed as “did not significantly inhibit”; in assay [1] (DMEM + 2% FCS, C8 at 0.31, 0.62 and 0.94 µM) it was “did not inhibit”; in assay [1] (DMEM medium alone, IL-1β 20 h), “did not significantly inhibit”. The “decrease of IL-1β-induced nitrite production” value in assay [1] (DMEM + 2% FCS, C8 1.24 µM) is listed as 17%; in assay [1] (DMEM + 2% FCS, C8 2.48 µM) it was 19%; in assay [1] (DMEM + 2% FCS, C8 4.96 µM) it was 21%.
